System: Fas mRNA
Assay: qRT-PCR Fas mRNA level in steatosis-induced Huh-7 cells
Format: cell-based, Human
Details: steatosis-induced (OA/PA) Huh-7 cells; 10 μM; 24 hours
Procedure: In Experimental Example 5, the Huh-7 cells were plated in 6 wells at 4×10^5 cells/mL and incubated under an atmosphere containing 5% CO2 at 37° C.
One day later, the cell density approached about 80 to 90%. The medium was changed to an FBS-free RPMI1640 medium, and incubated under an atmosphere containing 5% CO2 at 37° C. for 24 hours.
Huh-7 cells of each well, excluding control cells, were pretreated with an OA/PA mixture for one hour to induce steatosis. The control cells were pretreated with 1% FA-free BSA.
Each well was treated with 10 μM of a test compound, and then the cells were incubated for 24 hours. The control cells and OA/PA-treated cells were treated with DMSO. Cells of a positive control were treated with 10 μM of resveratrol, 10 μM of piperine, and 10 μM of YU2014. The medium was entirely aspirated, and the cells were washed with PBS (phosphate buffered saline, Corning, Manassas, Va., USA) two times.
Total RNA was extracted using a RNeasy RNA isolation kit (Qiagen, Hilden, Germany).
10 μL of β-mercaptoethanol (Sigma-Aldrich) per 1 mL of lysis buffer was added, thereby preparing an RNA lysis buffer. […]
An RNA concentration was measured at O.D. 260 nm using a nanophotometer N60 (Implen, Munich, Germany). The concentration and purity of RNA were measured at O.D. 260/280 nm and calculated as a ratio. […]
Quantitative analyses for the genes in Table 3 were performed.

CSc1ccc(/C=C/C=C/C(=O)N2CCCCC2)cc1 [YU2014, (2E,4E)-5-(4-(methylthio)phenyl)-1-(piperidine-1-yl)penta-2,4-dien-1-one] was tested, and the “Fas mRNA level (FIG. 13)” value was “reduce”.

Reference: US20200157048A1, “(2E,4E)-5-PHENYL-PENTA-2,4-DIEN-1-ONE DERIVATIVE” (BIOWAY., INC, priority 2018, published 2020)
